Test results: US10676440B2, “Crystalline forms of an NK-1 antagonist” (Helsinn Healthcare SA, priority 2014, dated 2020)
Where “and” joins values, the source holds several entries; their conditions need not be identical. Equal values may be shown once.

Assays:
[1] = Pharmacokinetics after oral administration of free base and salts in dogs; details: for AUC(0-t): AUC (0-100 h)
Experimental: In Example 10, the pharmacokinetics of the compound of Formula I in dogs following single intravenous and oral administration was evaluated and the oral bioavailability of five different salts of the compound of Formula I was compared. The compound of Formula I was administered to dogs as described in Table 12. The doses are expressed in mg of free base.
The experiments were performed in 15 male dogs (bodyweight 11-18 kg) from RCC Ltd., Biotechnology and Animal Breeding Division, Wolferstrasse 4, CH-4414, Fullinsdorf, Switzerland. The animals were housed under standard laboratory conditions throughout the study period.
For the pharmacokinetic studies, 1 mL blood samples were collected from the cephalic vein of the dogs via catheter at 15, 30 min and at 1, 2, 3, 4, 6, 8, 24, 32, 48, 56, 72, 80, 96, and 100 (or 104) hours following oral dosing. After intravenous administration, blood samples were collected at 5, 15, 30 min and 1, 2, 3, 4, 6, 8, 24, 32, 48, 56, 75, 102, 120, 128, 144, 152, 168, 176, 192, and 200 hours. Collection tubes contained EDTA/NaF as anticoagulant and stabilizer. After centrifugation, plasma was removed and stored deep frozen at approximately −20° C. until analysis using a specific LC-MS method.
Aliquots of 40 μL plasma were mixed with 50 μL buffer at pH 5, 50 μL internal standard of Formula I (1 μg/mL in 1-chlorobutane) and 250 μL butylacetate and then shaken for 10 min. After centrifugation, 200 μL of the supernatant were evaporated to dryness at 45° C. under a stream of nitrogen. The residue was reconstituted with 200 μL acetonitrile/1% formic acid in water (30/70, v/v). Aliquots of 30 μL were injected onto the analytical column (Waters, Symmetry C8, 2.1×150 mm, 5 μm).
Separation occurred by gradient elution using a solvent A (acetonitrile) and solvent B (1% formic acid in water). The flow rate was 0.3 mL/min and the gradient elution was: […]
The sample passed to the ion-spray interface of the single quadrupole mass spectrometer. Selected ion monitoring mode (SIM) was used for mass spectrometric detection. Quantification was based on peak area ratios and calibration curve established between 2 and 5000 ng/mL.
To a 100 μL sample aliquot were added 200 μL of a mixture of acetonitrile/ethanol containing the deuterated internal standard, to precipitate plasma proteins. After vortex mixing and centrifugation, aliquots of the supernatants were transferred to 96-deel-well plates and injected for analysis (5 μL). Following enrichment and cleanup on the trapping column, the analyte was eluted and separated by gradient elution on a 2.1*30 mm analytical column (XTerra MS C18). The effluent from the analytical column was passed to the turbo ion spray vie a divert valve.
Calibration standards were prepared in dog plasma. The calibration range was from 10-5000 ng/mL. In each analytical series, a set of calibration standards was worked up and run with the unknowns. Calibration was then performed by computing a weighted (1/X^2) least-squares linear regression line of the measured peak area ratios (Y) (analyte to internal standard) versus the spiked concentrations (X). The drug concentrations of the unknown samples were then calculated from this regression line (UNICHROM). The performance of the analytical procedure during sample analysis was monitored. With each analytical series, quality control (QC) samples in dog plasma, spiked with known amounts of the analyte, were run together with the study samples.
The pharmacokinetic parameters were estimated by non-compartmental analysis, using the pharmacokinetic evaluation program WinNOnlin [1]. AUC(0-inf.) was calculated applying the linear trapezoidal rule and extrapolation to infinity using the apparent elimination rate constant kz and the calculated concentration at the last measurable time point. AUClast values were calculated by linear trapezoidal rule from time zero to time of last measureable time point.

[2] = Pharmacokinetics after intravenous, intraperitoneal and oral administration in rats
Experimental: In Example 11, the pharmacokinetics of the compound of Formula I was evaluated following single intravenous, intraperitoneal, and oral administration to rats to compare the oral bioavailability of two different formulations and to measure the brain penetration after intravenous administration.
A solution of the compound of Formula I (4.7 mg/mL) in water and a suspension of the compound of Formula I (5 mg/mL) in SSV (standard suspension vehicle) were prepared.
The experiments were performed in 20 male rats (Strain RoRo Fuellinsdorf, body weight 230-290 g) from Biological Research Laboratories, Fuellinsdorf, Switzerland. The animals were housed under standard laboratory conditions throughout the study period. After an acclimatization period of 3 days, the rats were implanted with chronic jugular catheters under pentobarbital anesthesia. After surgery the rats were on recovery for 2 days before dosing. They had free access to water and food during the experiment.
For the pharmacokinetic studies, 0.4 mL blood samples were collected at different time points, up to 72 hours post-dose, from the jugular vein of the rats via catheter. For the study of brain and CSF penetration, 2 mL blood samples as well as CSF and brain were collected between 0.3 and 2 hours post-dose from one rat at each time point. Collection tubes contained EDTA/NAF as anticoagulant and stabilizer, respectively. After centrifugation, plasma was removed. Plasma, CSF and brain samples were stored deep-frozen at approximately −20° C. until analysis using a specific LC-MS method.
Aliquots of plasma samples of 40 μL were mixed with 50 μL buffer pH 9, 50 μL of a Formula I internal standard (1 μg/mL 1-chlorobutane) and 250 μL butylacetate and then shaken for 10 min. After centrifugation, 200 μL of the supernatant were evaporated to dryness at 45° C. under a stream of nitrogen. The residue was reconstituted with 200 μL acetonitrile/1% formic acid in water (30/70, v/v). An aliquot of 30 μL was injected onto an analytical column (Waters, Symmetry C8, 2.1×150 mm, 5 μm).
The sample passed to the ion-spray interface of the single quadrupole mass spectrometer. Selected ion monitoring mode (SIM) was used for mass spectrometric detection. Quantification was based on peak area ratios and calibration curve established by weighted (1/x^2) linear regression. The calibration curve was established between 5 and 5000 ng/mL using dog plasma as matrix. Data acquisition and integration of SIM chromatograms were performed using MacQuan (version 1.6) from Perkin-Elmer Sciex.
The pharmacokinetic parameters were estimated by non-compartmental analysis, using the pharmacokinetic evaluation program WinNOnlin [1]. AUC(0-inf) was calculated applying the linear trapezoidal rule and extrapolation to infinity using the apparent elimination rate constant λz and the calculated concentration at the last measurable time point. AUClast values were calculated by linear trapezoidal rule from time zero to time of last measureable time point. Cmax, C(t), and Tmax were determined directly from the plasma concentration-time profiles. The apparent terminal half-life (T1/2) was derived from the equation: T1/2=ln2/λz. Means of the half-life were calculated by harmonic means. Plasma clearance, CL, was calculated as D/AUC(0-inf.). Volume of distribution, Vz, was calculated as CL/λz. The absolute bioavailability was calculated from plasma concentration data as follows: […]
A solution of Formula I (hydrochloride salt) was administered intravenously at a dose of 9.4 mg/kg to 2 male rats in two subsequent experiments. In both studies, blood samples were obtained at 0.083, 0.25, 0.5, 1, 2, 4, 6, 8, and 24 h after intravenous application and in addition at 48 and 72 h in the study.

[3] = dogs, single oral, capsule, 120 mg/dog as free base, Protocol A, individual dogs
[4] = dogs, single oral, capsule, 120 mg/dog as free base, Protocol A, individual dogs, listed as hydrochloride salt
[5] = rats NJ97, NJ98, head prints (water, p.o), title: single oral in SSV, listed as Formula I (HCl salt)
[6] = rats NJ99, NJ100, head prints (water, i.p.), title: single oral in water, 9.3 mg/kg free base, listed as Formula I (HCl salt), 9.3 mg/kg
[7] = rats NJ101, NJ102, water, i.v., 9.3 mg/kg free base, listed as Formula I (HCl salt), 9.3 mg/kg
[8] = male, RoRo Fuellinsdorf, rat, in vivo, po, 10 mg/kg

Cc1ccccc1-c1cc(N2CCN(C)CC2)ncc1N(C)C(=O)C(C)(C)c1cc(C(F)(F)F)cc(C(F)(F)F)c1.Cl [Hydrochloride]
AUC (0-100 h) [1, 3]: 25900 ng·h/mL and 20900 ng·h/mL | AUC (0-Inf.) [1, 3]: 36400 ng·h/mL and 26900 ng·h/mL | F (oral bioavailability) [1, 3]: 91.4% and 66.7% | T1/2 [1, 3]: 48.2 h | Cmax [1, 4]: 1110 ng/mL and 733 ng/mL | F (oral bioavailability) [1, 4]: 91% and 67% | T1/2 [1, 4]: 64 h and 44 h | Tmax [1, 4]: 1 h and 4 h | F ([2]; rats NJ97, NJ98, head prints (water, p.o), title: single oral in SSV, calculated with AUC 0-48 h, listed as Formula I (HCl salt)): 42.4% and 53.7% | AUC (0-48 h) [2, 5]: 12000 ng·h/mL and 15200 ng·h/mL | AUC (0-Inf. h) [2, 5]: 12800 ng·h/mL and 15800 ng·h/mL | Cmax [2, 5]: 616 ng/mL and 796 ng/mL | T1/2 [2, 5]: 11.6 h and 10.2 h | Tmax [2, 5]: 2.2 h and 4.0 h | AUC (0-48 h) [2, 6]: 26200 ng·h/mL and 20100 ng·h/mL | AUC (0-Inf. h) [2, 6]: 37900 ng·h/mL and 34000 ng·h/mL | Cmax [2, 6]: 933 ng/mL and 1060 ng/mL | F [2, 6]: 98.6% and 75.7% | T1/2 [2, 6]: 26.5 h and 27.1 h | Tmax [2, 6]: 6.3 h and 4.0 h | AUC (0-48 h) [2, 7]: 31700 ng·h/mL and 21400 ng·h/mL | AUC (0-Inf. h), **calculated with AUC (0-72 h) [2, 7]: 49300** ng · h/mL and 32300** ng · h/mL | CL* (calculated with AUC (0-24 h)) [2, 7]: 4.96 mL/min/kg and 7.35 mL/min/kg | T1/2, ***without 72 h concentration [2, 7]: 25.5*** h and 18.2*** h | Vz* (calculated with AUC (0-24 h)) [2, 7]: 11.0 L/kg and 11.5 L/kg | plasma concentrations at 72 h relative to those at 48 h ([2]; rats, i.v.): 4 times | mean apparent terminal half-life ([2]; rats, i.v., 9.4 mg/kg, n=4): 19.8 h | increase of plasma levels at 72 h post-dose over 48 h ([2]; rats, oral solution in water): very small | mean (±SD) apparent terminal half-life ([2]; rats, oral solution in water, 4 rats): 13.6 h | increase of plasma levels at 72 h post-dose over 48 h ([2]; rats, oral suspension in SSV): approximately 5 fold

Cc1ccccc1-c1cc(N2CCN(C)CC2)ncc1N(C)C(=O)C(C)(C)c1cc(C(F)(F)F)cc(C(F)(F)F)c1 [Free Base, 2-(3,5-bis(trifluoromethyl)phenyl)-N,2-dimethyl-N-(6-(4-methylpiperazin-1-yl)-4-(o-tolyl)pyridin-3-yl)propanamide]
AUC (0-100 h) ([1]; male, dog, in vivo, po, 70 mg): 12800 ng·h/mL | AUC (0-Inf.) ([1]; male, dog, in vivo, po, 70 mg): 14500 ng·h/mL | Cmax ([1]; male, dog, in vivo, po, 70 mg): 667 ng/mL | T1/2 ([1]; male, dog, in vivo, po, 70 mg): 35.7 h | AUC(0-t) ([1]; male, dog, in vivo, po, 70 mg): 16200 ng·h/mL | AUC(0-inf) ([1]; male, dog, in vivo, po, 70 mg): 19300 ng·h/mL | Cmax ([1]; male, dog, in vivo, po, 70 mg, Cmax): 587 ng/mL | bioavailability ([1]; male, dog, in vivo, po, 70 mg, F (oral bioavailability)): 64% | half-life ([1]; male, dog, in vivo, po, 70 mg, T1/2): 40.4 h | Tmax ([1]; male, dog, in vivo, po, 70 mg, Tmax): 4 to 6 h | AUC (0-100 h) ([1]; male, dog, in vivo, po, 120 mg): 17400 ng·h/mL | AUC (0-Inf.) ([1]; male, dog, in vivo, po, 120 mg): 22600 ng·h/mL | Cmax ([1]; male, dog, in vivo, po, 120 mg): 757 ng/mL | T1/2 ([1]; male, dog, in vivo, po, 120 mg): 56.3 h | AUC(0-t) ([1]; male, dog, in vivo, po, 120 mg): 11000 ng·h/mL | AUC(0-inf) ([1]; male, dog, in vivo, po, 120 mg): 12700 ng·h/mL | Cmax ([1]; male, dog, in vivo, po, 120 mg, Cmax): 614 ng/mL | half-life ([1]; male, dog, in vivo, po, 120 mg, T1/2): 39.5 h | Tmax ([1]; male, dog, in vivo, po, 120 mg, Tmax): 2 h | half-life ([1]; male, dog, in vivo, po, apparent terminal half-lives): 36 to 56 h | bioavailability ([1]; male, dog, in vivo, po, oral (systemic) bioavailability): 34 to 83% | Cmax [2, 8]: 796 ng/mL | Tmax [2, 8]: 4 h | Cmax ([2]; male, RoRo Fuellinsdorf, rat, in vivo, po, 10 mg/kg, Cmax): 616 ng/mL | Tmax ([2]; male, RoRo Fuellinsdorf, rat, in vivo, po, 10 mg/kg, Tmax): 2.2 h
